The results in this text go back to patent US9206173B2, “Heterocyclic compounds for the treatment of stress-related conditions” (OTSUKA PHARMACEUTICAL CO., LTD., priority 2009, dated 2015).

Each structure is given as a SMILES string. Counter-ions that a name gives are not always drawn.

Assay [1] has as its target T1, human GPR10 (Homo sapiens (Human), UniProt P49683). Briefly: Inhibitory activity on binding of [3H]-PrRP to GPR10 (HEK 293 cell membrane fraction). The settings on record: [3H]-PrRP 1 nM, human GPR10-expressing HEK 293 cell membrane fraction; Ki from IC50 by Cheng-Prussoff formula. As for the experimental part: Inhibitory Activity on Binding of [^3H]-PrRP to GPR10
Human GPR10 receptor expressing human embryonic kidney cells, HEK 293 cells, were cultured in Dulbecco's Modified Eagle's medium supplemented with 10% fetal bovine serum and 1% penicilline-streptmycin at 37° C., in 5% carbon dioxide gas conditions. The medium was removed and the cells were recovered in a phosphate buffer to prepare a cell suspension. The cell suspension was homogenated on ice by an ultrasonic cell homogenizer (Microson™ type XL200) and centrifuged at 40,000 g for 10 minutes at 4° C. After the supernatant was discarded, Buffer A (20 mM HEPES, 10 mM EDTA, 1 μl/ml protease inhibiting cocktail, pH 7.4) was added to the pellet. The pellet was suspended by the ultrasonic cell homogenizer, then the suspension was centrifuged at 40,000 g, for 10 minutes at 4° C. After this operation was repeated once again, the supernatant was discarded, Buffer B (20 mM HEPES, 0.1 mM EDTA, pH 7.4) was added to the pellet, and the pellet was suspended by the ultrasonic homogenizer. This was stored at a freezer of −80° C. as a cell membrane fraction until use in a binding test.
To each well of a 96-well plate, 150 μl of assay buffer (20 mM HEPES, 10 mM EDTA, 1 μl/ml protease inhibiting agent cocktail, pH 7.4), 20 μl of cell membrane fraction, 10 μl of test compound and [^3H]-PrRP (final concentration 1 nM) were added and incubated at room temperature for 90 minutes. After completion of the reaction, using a cell harvester, the cell-membrane fraction sample product was filtered under aspiration by a glass fiber filter plate (Unifilter; GF/B) previously treated with 0.5% polyethylene imine. The filter was washed with a 50 mM Tris hydrochloric acid buffer (pH 7.4) three times. After the filter was dried in a dryer (50° C.) for about 3 hours, 40 μl of liquid scintillation cocktail (MicroScint-O) was added to each well and radio activity was measured by a scintillation counter (Packard Topcount). The radio activity in the presence of an excessive amount of non-labeled PrRP (final concentration: 100 nM) was regarded as non-specific binding.
The binding inhibition rate was calculated based on calculating formula: 100−(radio activity when a compound is added−radio activity of non-specific binding)÷(radio activity when a solvent is added−radio activity of non-specific binding)×100.
An IC50 value was calculated based on the concentration dependent reaction using a non-linear analysis program and a Ki value was calculated using Cheng-Prussoff formula.

In assay [2] the target is T1, human GPR10. Briefly: Antagonistic activity on PrRP-induced intracellular calcium mobilization in human GPR10-expressing HEK293 cells. The assay is classed as cell-based. The settings on record: PrRP 1 nM-induced intracellular calcium mobilization, Fluo-8. The protocol: Pharmacological Test 2 Antagonistic Activity on GPR10 Using Human GPR10-Expressing HEK293 Cells.
Antagonistic activity of test compounds on PrRP-induced intracellular calcium mobilization was evaluated using GPR10-expressing HEK293 cells.
HEK293 cells expressing human GPR10 were maintained in Dulbecco's Modified Eagles' medium supplemented with 10% fetal bovine serum, 1% penicillin-streptomycin and 20 mM HEPES at 37° C. in a 5% CO2 incubator. GPR10-expressing HEK293 cells were placed in poly-D-lysine coated 96-well culture plates and cultured for 18-24 hr before the test at a density of 3×10^4 cells/well. […] The cells were incubated with test compounds for 15 min at room temperature, and then PrRP (the final concentration, 1 nM) was added into the medium. The changes in intracellular calcium-dependent fluorescence were monitored using a fluorescence imaging plate reader (FDSS3000, Hamamatsu Photonics K.K.). Fluo-8 fluorescence was measured with excitation at 490 nm and emission at 520 nm. The calcium-dependent fluorescence intensity was calculated by subtracting basal intensity (average intensity for 30 sec before agonist stimulation) from peak intensity for 60 sec after PrRP-stimulation, and then IC50 values were determined by nonlinear curve-fitting program, GraphPad Prism 5.
(In general: Calcium assays in cells follow changes in intracellular calcium, usually with a dye or a luminescent sensor.)

T1 sequence (P49683 whole entry): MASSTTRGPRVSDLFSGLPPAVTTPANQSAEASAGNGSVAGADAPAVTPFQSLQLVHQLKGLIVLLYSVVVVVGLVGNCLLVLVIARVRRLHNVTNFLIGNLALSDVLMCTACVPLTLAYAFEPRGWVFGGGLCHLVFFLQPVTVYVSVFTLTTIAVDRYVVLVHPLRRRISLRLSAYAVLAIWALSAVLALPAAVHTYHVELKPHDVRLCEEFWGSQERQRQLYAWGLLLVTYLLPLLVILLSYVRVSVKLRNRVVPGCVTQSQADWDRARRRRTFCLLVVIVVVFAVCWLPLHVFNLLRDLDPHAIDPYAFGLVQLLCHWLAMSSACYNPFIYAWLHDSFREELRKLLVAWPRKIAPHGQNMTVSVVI

The term Ki denotes a measure of affinity in units of concentration, obtained from inhibition or displacement. One may read the IC50 as the concentration that gives 50% inhibition. For `C[C@H](Nc1nc2c(c(=O)n1N(C)C)CN(C(=O)c1c(F)cc(F)cc1F)CC2)c1ccc(C(F)(F)F)cc1` [Example 2484, 3-dimethylamino-6-(2,4,6-trifluorobenzoyl)-2-[(S)-1-(4-trifluoromethylphenyl)ethylamino]-5,6,7,8-tetrahydro-3H-pyrido[4,3-d]pyrimidin-4-one hydrochloride], on human GPR10 [1], the affinity, expressed as Ki, was 0.006 µM. In addition, the IC50 at human GPR10 [2] was determined as 0.216 µM.

`C[C@@H](Nc1nc2c(c(=O)n1N1CCCC1)CN(C(=O)c1ccc(C#N)cc1F)CC2)c1ccc(C(F)(F)F)cc1` [Example 166] had a Ki at human GPR10 [1] of 0.006 µM. The IC50 on human GPR10 [2] was determined as 0.298 µM.

For `C#CCn1c(N[C@@H](C)c2ccc(C(F)(F)F)cc2)nc2c(c1=O)CN(C(=O)c1ccc(C#N)cc1F)CC2` [Example 1, 6-(4-cyano-2-fluorobenzoyl)-3-propargyl-2-(S)-{1-[4-(trifluoromethyl)phenyl]ethylamino}-5,6,7,8-tetrahydropyrido[4,3-d]pyrimidin-4-(3H)-one hydrochloride], affinity at human GPR10 [1] was put at a Ki of 0.005 µM. Further, at human GPR10 [2], the IC50 was determined as 0.042 µM.

Regarding `CC#CCn1c(N[C@@H](C)c2ccc(C(F)(F)F)cc2)nc2c(c1=O)CN(C(=O)c1ccc3cccnc3c1)CC2` [Example 2417, 3-(2-butynyl)-6-(quinoline-7-carbonyl)-2-[(S)-1-(4-trifluoromethylphenyl)ethylamino]-5,6,7,8-tetrahydro-3H-pyrido[4,3-d]pyrimidin-4-one dihydrochloride], the affinity at human GPR10 [1] corresponds to a Ki of 0.017 µM. Besides, the IC50 on human GPR10 [2] amounted to 0.78 µM.

Compound `COn1c(N[C@@H](C)c2ccc(C(F)(F)F)cc2)nc2c(c1=O)CN(C(=O)c1ccc(C)s1)CC2` [Example 2404, 3-methoxy-6-(5-methyl-thiophene-2-carbonyl)-2-[(S)-1-(4-trifluoromethylphenyl)ethylamino]-5,6,7,8-tetrahydro-3H-pyrido[4,3-d]pyrimidin-4-one] returned a Ki at human GPR10 [1] of 0.01 µM. Besides, the IC50 on human GPR10 [2] came to 1.13 µM.

On human GPR10 [1], `CC#CCn1c(N[C@@H](C)c2ccc(C(F)(F)F)cc2)nc2c(c1=O)CN(C(=O)c1cnc3ccccc3c1)CC2` [Example 2446, 3-(2-butynyl)-6-(quinoline-3-carbonyl)-2-[(S)-1-(4-trifluoromethylphenyl)ethylamino]-5,6,7,8-tetrahydro-3H-pyrido[4,3-d]pyrimidin-4-one] returned a Ki of 0.028 µM. The IC50 at human GPR10 [2] was 2.79 µM.

With `CCOn1c(N[C@H](C)c2ccc(C(F)(F)F)cc2)nc2c(c1=O)CN(C(=O)c1ccc(C#N)cc1F)CC2` [Example 95], the Ki on human GPR10 [1] was determined as 0.005 µM. On human GPR10 [2], the IC50 was found to be 0.227 µM.

The compound `CCOn1c(N[C@H](C)c2ccc(C(F)(F)F)cc2)nc2c(c1=O)CN(C(=O)c1ccc(-c3cnco3)cc1)CC2` [Example 104] came in with a Ki on human GPR10 [1] of 0.02 µM. In addition, the IC50 at human GPR10 [2] was 0.158 µM.

`CC#CCn1c(N[C@@H](C)c2ccc(C(F)(F)F)cc2)nc2c(c1=O)CN(C(=O)c1ccc(C)c(C)c1)CC2` [Example 2447, 3-(2-butynyl)-6-(3,4-dimethylbenzoyl)-2-[(S)-1-(4-trifluoromethylphenyl)ethylamino]-5,6,7,8-tetrahydro-3H-pyrido[4,3-d]pyrimidin-4-one] came in with a Ki on human GPR10 [1] of 0.041 µM.

The compound `C#CCn1c(N[C@@H](C)c2ccc(C(F)(F)F)cc2)nc2c(c1=O)CN(C(=O)c1cccc(C#N)c1)CC2` [Example 2476, 3-{4-oxo-3-(2-propynyl)-2-[(S)-1-(4-trifluoromethylphenyl)ethylamino]-3,5,7,8-tetrahydro-4H-pyrido[4,3-d]pyrimidine-6-carbonyl}benzonitrile] showed a Ki at human GPR10 [1] of 0.009 µM.

At human GPR10 [1], `COn1c(NC(CCC(F)(F)F)c2ccc(Cl)cc2)nc2c(c1=O)CN(C(=O)c1ccc(Cl)cc1)CC2` (stereo not shown) [Example 2450, 6-(4-chlorobenzoyl)-2-[1-(4-chlorophenyl)-4,4,4-trifluorobutylamino]-3-methoxy-5,6,7,8-tetrahydro-3H-pyrido[4,3-d]pyrimidin-4-one] showed a Ki of 0.121 µM. Compared with the last compound, the Ki is about 13-fold higher.
